In paper PMC9811652 (RSC Advances, 2023):

How the values were obtained:
AChE = details: at 200 μM; cited from earlier work
BChE = details: at 200 μM; cited from earlier work
[1] = target: human serum acetylcholinesterase (Homo sapiens, UniProt P22303); assay: biochemical
human serum acetylcholinesterase, sequence (P22303 32-574 limits assumed): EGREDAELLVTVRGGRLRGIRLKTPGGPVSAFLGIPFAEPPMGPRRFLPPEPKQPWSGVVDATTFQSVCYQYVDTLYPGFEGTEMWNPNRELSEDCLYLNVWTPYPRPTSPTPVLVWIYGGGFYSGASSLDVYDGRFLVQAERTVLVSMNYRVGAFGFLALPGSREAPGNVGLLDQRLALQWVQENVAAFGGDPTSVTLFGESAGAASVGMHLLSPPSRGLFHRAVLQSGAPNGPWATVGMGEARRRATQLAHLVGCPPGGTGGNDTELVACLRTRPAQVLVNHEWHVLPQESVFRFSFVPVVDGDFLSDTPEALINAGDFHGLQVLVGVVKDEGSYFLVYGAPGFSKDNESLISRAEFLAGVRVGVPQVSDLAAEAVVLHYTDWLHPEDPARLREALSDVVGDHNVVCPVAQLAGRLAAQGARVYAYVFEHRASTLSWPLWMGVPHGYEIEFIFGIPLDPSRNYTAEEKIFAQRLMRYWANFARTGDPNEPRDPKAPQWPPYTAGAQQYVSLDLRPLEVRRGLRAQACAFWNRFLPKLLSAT

COc1ccc2c3c1O[C@H]1C[C@@H](O)C=C[C@@]31CCN(C)C2 [Galantamine]
percentage inhibition, AChE (AChE): 78.76 ± 0.94% | percentage inhibition, BChE (BChE): 79.72 ± 0.33%

COc1c(OC)c(OC)c2c(-c3ccccc3)c(-c3ccccc3)[nH]c2c1CNc1ccccc1 [indole amine 23, 4,5,6-Trimethoxy-2,3-diphenyl-7-phenylaminomethyl-(1H)-indole]
IC50 [1]: 12.1 µM

COc1c(OC)c(OC)c2c(-c3ccccc3)c(-c3ccccc3)[nH]c2c1CNc1cccc([N+](=O)[O-])c1 [indole amine 24, 4,5,6-Trimethoxy-7-(3′-nitrophenylaminomethyl)-2,3-diphenyl-(1H)-indole]
IC50 [1]: 4.66 µM

COc1c(OC)c(OC)c2c(-c3ccccc3)c(-c3ccccc3)[nH]c2c1CNc1ccc([N+](=O)[O-])cc1 [indole amine 25, 4,5,6-Trimethoxy-7-(4′-nitrophenylaminomethyl)-2,3-diphenyl-(1H)-indole]
IC50 [1]: 4.28 µM
